Test results: publication PMC9692511, “Coumarin-Based Dual Inhibitors of Human Carbonic Anhydrases and Monoamine Oxidases Featuring Amino Acyl and (Pseudo)-Dipeptidyl Appendages: In Vitro and Computational Studies” (Molecules, 2022)
Where “and” joins values, the source holds several entries; their conditions need not be identical. Equal values may be shown once. Read-outs that look alike come from different tables or passages of the source.

Key:
[1] = molecular target: T1, hCA I (Homo sapiens, UniProt P00915); experiment: hCA I inhibition, stopped-flow CO2 hydration assay; assay type: biochemical; details: stopped-flow technique, mean of three independent experiments
T1 construct: made in house
Description: (§1) An Applied Photophysics stopped-flow instrument was used for measuring hCA-catalyzed CO2 hydration activity. […] However, the background activity from the uncatalyzed reaction was always subtracted when IC50 values were obtained by using the data analysis software for the stopped-flow instrument. […] The uncatalyzed rates were measured in the same manner and were subtracted from the total observed rates. Stock solutions of the inhibitor (0.1 mM) were prepared in distilled-deionized water, and dilutions up to 0.01 nM were performed thereafter with the assay buffer. Inhibitor and enzyme solutions were preincubated together for 15 min at room temperature prior to the assay, to allow for the formation of the E–I complex. The inhibition constants (Ki) were obtained by the nonlinear least-squares methods using PRISM 3 and the Cheng-Prusoff equation as reported earlier and are presented as the mean from at least three different determinations. All hCA isoforms were recombinant proteins obtained in-house, as reported earlier.

[2] = molecular target: T2, hMAO-A (Homo sapiens, UniProt P21397); experiment: hMAO-A inhibition, kynuramine fluorescence assay; assay type: biochemical
T2 construct: purchased Sigma-Aldrich
T2 sequence (P21397 1-527): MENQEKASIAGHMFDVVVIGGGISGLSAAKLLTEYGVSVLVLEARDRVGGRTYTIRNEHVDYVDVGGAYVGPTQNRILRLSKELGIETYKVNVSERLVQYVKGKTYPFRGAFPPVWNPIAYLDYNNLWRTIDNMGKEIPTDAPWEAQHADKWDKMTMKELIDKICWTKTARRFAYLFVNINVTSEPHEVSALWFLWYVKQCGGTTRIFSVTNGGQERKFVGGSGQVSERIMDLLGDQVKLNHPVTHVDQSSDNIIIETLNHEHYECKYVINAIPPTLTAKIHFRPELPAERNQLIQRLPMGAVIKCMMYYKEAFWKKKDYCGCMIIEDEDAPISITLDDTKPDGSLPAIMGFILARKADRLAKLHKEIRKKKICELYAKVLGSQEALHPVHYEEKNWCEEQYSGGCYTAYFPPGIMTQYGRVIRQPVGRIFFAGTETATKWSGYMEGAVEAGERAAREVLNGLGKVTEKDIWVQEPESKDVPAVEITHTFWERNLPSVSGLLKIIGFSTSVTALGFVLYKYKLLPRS
Description: (§2) Activity measurements (IC50) for hMAO-A and hMAO-B were carried out as reported in the literature. Recombinant human MAO-A and MAO-B were obtained commercially (Sigma-Aldrich, Cape Town, South Africa) and were used as enzyme sources. Kynuramine is a non-specific substrate and serves as a substrate for both hMAO isoforms. The hMAOs metabolize kynuramine to produce 4-hydroxyquinoline, which was measured at the endpoint of the enzyme reactions by fluorescence spectrophotometry.

[3] = molecular target: T3, hCA II (Homo sapiens, UniProt P00918); experiment: hCA II inhibition, stopped-flow CO2 hydration assay; assay type: biochemical; details: stopped-flow technique, mean of three independent experiments
T3 construct: made in house
Description: as §1

[4] = molecular target: T4, hCA XII (Homo sapiens, UniProt O43570); experiment: hCA XII inhibition, stopped-flow CO2 hydration assay; assay type: biochemical; details: for SI hCA XII over hCA I or hCA II: Ki hCA I or II (nM)/Ki hCA XII (nM); for SI hCA XII over hCA IX: Ki hCA IX (nM)/Ki hCA XII (nM)
T4 construct: made in house
Description: as §1

[5] = molecular target: T5, hMAO-B (Homo sapiens, UniProt P27338); experiment: hMAO-B inhibition, kynuramine fluorescence assay; assay type: biochemical; details: recombinant human MAO-B, kynuramine substrate; mean ± SD of three independent experiments
T5 construct: purchased Sigma-Aldrich
T5 sequence (P27338 1-520): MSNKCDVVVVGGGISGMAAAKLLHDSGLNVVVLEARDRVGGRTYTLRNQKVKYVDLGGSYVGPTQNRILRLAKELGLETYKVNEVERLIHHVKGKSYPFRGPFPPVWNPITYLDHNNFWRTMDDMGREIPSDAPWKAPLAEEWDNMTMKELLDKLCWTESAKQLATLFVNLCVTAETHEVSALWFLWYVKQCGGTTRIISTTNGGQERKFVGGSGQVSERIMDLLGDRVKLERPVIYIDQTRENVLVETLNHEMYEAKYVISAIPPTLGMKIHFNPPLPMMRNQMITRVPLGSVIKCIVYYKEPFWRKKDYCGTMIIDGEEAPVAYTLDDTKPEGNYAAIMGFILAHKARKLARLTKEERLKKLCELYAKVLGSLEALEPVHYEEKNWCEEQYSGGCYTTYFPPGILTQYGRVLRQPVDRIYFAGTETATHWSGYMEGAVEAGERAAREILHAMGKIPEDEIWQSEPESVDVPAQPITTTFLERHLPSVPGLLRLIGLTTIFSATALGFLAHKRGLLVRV
Description: as §2

[6] = molecular target: T6, hCA IX (Homo sapiens, UniProt Q16790); experiment: hCA IX inhibition, stopped-flow CO2 hydration assay; assay type: biochemical; details: for Ki: stopped-flow technique, mean of three independent experiments
T6 construct: made in house
Description: as §1

[7] = recombinant human MAO-A, kynuramine substrate, mean ± SD of three independent experiments
[8] = Ki hCA I or II (nM)/Ki hCA IX (nM)
[9] = stopped-flow technique, mean of three independent experiments, read-out: Ki hCA XII

T4 sequence (O43570 25-354): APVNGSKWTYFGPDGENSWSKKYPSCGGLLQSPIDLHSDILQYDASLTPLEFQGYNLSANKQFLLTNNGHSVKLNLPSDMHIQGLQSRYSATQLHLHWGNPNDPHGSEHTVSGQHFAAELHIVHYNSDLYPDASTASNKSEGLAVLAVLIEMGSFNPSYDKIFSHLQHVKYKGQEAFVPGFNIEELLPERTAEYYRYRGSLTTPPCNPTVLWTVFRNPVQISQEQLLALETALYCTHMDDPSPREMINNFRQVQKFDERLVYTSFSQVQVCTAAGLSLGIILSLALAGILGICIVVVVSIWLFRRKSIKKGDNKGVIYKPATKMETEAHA
T1 sequence (P00915 whole entry): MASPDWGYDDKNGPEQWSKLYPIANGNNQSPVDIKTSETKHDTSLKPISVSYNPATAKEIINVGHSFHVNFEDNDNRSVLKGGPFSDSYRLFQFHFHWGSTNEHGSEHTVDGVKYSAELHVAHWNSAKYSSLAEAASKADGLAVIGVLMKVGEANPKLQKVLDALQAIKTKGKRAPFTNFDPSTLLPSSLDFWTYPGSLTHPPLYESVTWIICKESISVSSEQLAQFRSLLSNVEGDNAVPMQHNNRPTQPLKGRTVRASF

Ki [1]	IC50 [2, 7]	Ki [3]	SI hCA XII over hCA I or hCA II [4]	SI hCA XII over hCA IX [4]	IC50 [5]	SI hCA IX over hCA I or hCA II [6]	Ki [6]	Ki [4]	melting point	SI hCA IX over hCA I or hCA II [6, 8]	SI MAO-B/MAO-A ([2]; IC50 MAO-B/IC50 MAO-A, selectivity for hMAO-A)	Ki [4, 9]	MAO-A (IC50 μM) [2, 7]	MAO-B (IC50 μM) [5]	Compound
> 10 µM	< 10 µM and 1.92 µM	> 10 µM	>327.9	0.8	> 100 µM	–	0.0234 µM	–	–	>427.3	52	0.0305 µM	–	–	CC(=O)N[C@@H](C)C(=O)Nc1ccc2c(C)cc(=O)oc2c1 [Compound 6, Ac-Ala-AMC]
> 10 µM	< 10 µM and 5.91 µM	> 10 µM	>261.8	4.8	> 100 µM	–	0.183 µM	0.0382 µM	193 to 195 °C	>54.6	–	–	–	–	COC(=O)CNC(=O)N[C@@H](C)C(=O)Nc1ccc2c(C)cc(=O)oc2c1 [Compound 16, MeO-Gly-CO-Ala-AMC]
> 10 µM	21.8 ± 0.092 µM	> 10 µM	>250.0	2.3	78 ± 22.3 µM	–	0.0936 µM	0.04 µM	177 to 183 °C	>106.8	–	–	–	–	COC(=O)[C@H](Cc1ccccc1)NC(=O)N[C@@H](C)C(=O)Nc1ccc2c(C)cc(=O)oc2c1 [Compound 18, MeO-Phe-CO-Ala-AMC]
> 10 µM	> 100 µM	> 10 µM	>182.8	0.5	75.3 ± 0.976 µM	–	0.027 µM	0.0547 µM	148 to 150 °C	>370.4	–	–	–	–	COCc1cc(=O)oc2cc(NC(=O)[C@H](C)NC(=O)N[C@@H](C)C(=O)OC)ccc12 [Compound 20, MeO-Ala-CO-Ala-AMMC]

Second part, the molecule before the results:

Compound	Ki [1]	IC50 [2, 7]	Ki [3]	SI hCA XII over hCA I or hCA II [4]	SI hCA XII over hCA IX [4]	IC50 [5]	SI hCA IX over hCA I or hCA II [6]	Ki [6]	Ki [4]	melting point	SI hCA IX over hCA I or hCA II [6, 8]	SI MAO-B/MAO-A ([2]; IC50 MAO-B/IC50 MAO-A, selectivity for hMAO-A)	Ki [4, 9]	MAO-A (IC50 μM) [2, 7]	MAO-B (IC50 μM) [5]
Cc1cc(=O)oc2cc(NC(=O)[C@H](C)NC(=O)OCc3ccccc3)ccc12 [Compound 1, Z-Ala-AMC]	> 10 µM	< 10 µM and 9.31 µM	> 10 µM	>90.9	0.3	> 100 µM	>327.9	0.0305 µM	–	–	–	–	–	–	–
Cc1cc(=O)oc2cc(NC(=O)[C@H](C)NC(=O)OCC3c4ccccc4-c4ccccc43)ccc12 [Compound 2, Fmoc-Ala-AMC]	> 10 µM	54.8 ± 0.028 µM	> 10 µM	>268.8	2.4	> 100 µM	–	0.091 µM	0.0372 µM	153 to 155 °C	>109.9	–	–	–	–
COCc1cc(=O)oc2cc(NC(=O)[C@H](C)NC(C)=O)ccc12 [Compound 7, Ac-Ala-AMMC]	> 10 µM	12 ± 0.693 µM	> 10 µM	>213.7	0.6	45.6 ± 1.85 µM	–	0.0294 µM	–	–	>340.1	–	0.0468 µM	–	–
CCC(C)C(NC(=O)OCc1ccccc1)C(=O)Nc1ccc2c(COC)cc(=O)oc2c1 (stereo not drawn) [Compound 8, Z-Ile-AMMC]	> 10 µM	47 ± 13.5 µM	> 10 µM	>241.0	1.9	> 100 µM	–	0.0787 µM	0.0415 µM	–	>127.1	–	–	–	–
COCc1cc(=O)oc2cc(NC(=O)[C@@H](NC(=O)[C@H](C)NC(=O)OCc3ccccc3)C(C)(C)C)ccc12 [Compound 11, Z-Ala-tLeu-AMMC]	> 10 µM	41.3 ± 17.8 µM	> 10 µM	>29.7	0.5	79.5 ± 7.24 µM	–	0.172 µM	0.336 µM	205 to 209 °C	>58.3	–	–	–	–
COC(=O)[C@H](C)NC(=O)N[C@@H](C)C(=O)Nc1ccc2c(C)cc(=O)oc2c1 [Compound 17, MeO-Ala-CO-Ala-AMC]	> 10 µM	69.6 ± 9.28 µM	> 10 µM	>1041.7	17.0	58.6 ± 24 µM	–	0.163 µM	0.0096 µM	193 to 195 °C	>61.2	–	–	–	–
CCOC(=O)CCNC(=O)N[C@@H](C)C(=O)Nc1ccc2c(C)cc(=O)oc2c1 [Compound 19, EtO-βAla-CO-Ala-AMC]	> 10 µM	> 100 µM	> 10 µM	>1052.6	27.4	> 100 µM	–	0.261 µM	0.0095 µM	182 to 183 °C	>38.4	–	–	completely devoid of activity	completely devoid of activity
